Results published in US20110269782A1, “USE OF NMDA ACTIVITY ENHANCERS TO TREAT HYPERSOMNIA, REDUCED WAKEFULNESS OR REDUCED VIGILANCE” (priority 2008, published 2011).

Assays:
rats = assay: Rat sleep parameters by EEG/EMG telemetry (WAKE, SWS, REM); format: in vivo
Procedure: In the above experiment rats implanted with a two channel telemetry transmitter to record EEG and EMG simultaneously were dosed with either Merck 1 (nanosuspension 3 mg/kg; 5 ml/kg; p.o.) or vehicle (1.4% W/V hydroxypropylmethylcellulose 0.2% W/V sodium docusate; p.o.) at light on-set in a cross-over design. EEG and EMG recordings were collected for at least 12 hours. Data was converted with LoadDSI.s2s and BatchEEGpower2.s2s scripts (CED) and every 12 s epoch was automatically classified as either WAKE, SWS or REM (PS) sleep with Modulus analysis of sleep v7.xlt. Statistical analysis was done with Student's t-test for paired data. REM latency was defined as the first>1 min REM bout.
Similar data is shown for D-amino acid oxidase inhibitor 4H-furo[3,2-b]pyrrole-5-carboxylic acid (Merck 2) in FIG. 3 and D-serine in FIG. 4 at 100 mg/kg. In this experiment rats implanted with a two channel telemetry transmitter to record EEG and EMG simultaneously were dosed with either drug (30, 100, 300 mg/kg d-serine or 25 mg/kg Merck 2) or vehicle (water or 0.5% MC) intraperitoneally at light on-set in a cross-over design. EEG and EMG recordings were collected for at least 12 hours. Data was converted with LoadDSI.s2s and BatchEEGpower2.s2 s scripts (CED) and every 12 s epoch was automatically classified as either WAKE, SWS or REM (PS) sleep with Modulus analysis of sleep v5 REM incl entries.XLT. Preliminary statistical analysis was done with Student's t-test for paired data. Significance level p<0.05.
(§1) Rats implanted with a two channel telemetry transmitter to record EEG and EMG simultaneously were dosed acutely with either Merck 3 (5 mg/kg; i.p.) or vehicle (distilled water; i.p.) at light onset in a cross-over design. EEB and EMG recordings were collected for at least 12 hours. Data was converted with LoadDSI.s2s and BatchEEGpower2.s2s scripts (CED) and every 12 s epoch was automatically classified as either WAKE, SWS or REM (PS) sleep and Modulus analysis of sleep v7 REM incl entries and tot.xlt. Preliminary statistical analysis was done with Student's t-test for paired data. Significance level p<0.05.
as §1, with “3 (25” for “3 (5”, “design. EEG” for “design. EEB”, “sleep with” for “sleep and”, “sleep v6” for “sleep v7”

[1] = 30 mg/kg, cited from earlier work
[2] = 25 mg/kg i.p., first four hours

SMILES: O=C(O)c1cc2sccc2[nH]1 [Merck 3, 4H-thieno[3,2-b]pyrrole-5-carboxylic acid]
- latency to REM sleep (rats; 5 mg/kg i.p.): significantly increased
- bout duration of SWS (rats; 5 mg/kg i.p., 7 to 12 h time period): significantly reduced
- time spent awake (rats; 5 mg/kg i.p., first four hours after dosing): significantly increased
- latency to REM (rats; 25 mg/kg i.p.): unaltered
- latency to SWS (rats; 25 mg/kg i.p.): unaltered
- wakefulness compared to the control (rats; 25 mg/kg i.p., first 4 h): significantly more awake
- time spent in REM (rats; [2]): decrease
- time spent in SWS (rats; [2]): decrease

SMILES: O=C(N[C@@H](c1ccccc1)[C@@H]1CCCCN1)c1cccc(C(F)(F)F)c1Cl [SSR504734]
- sleep parameters 24 h after drug challenge ([1]; 24 h after drug challenge): returned to control levels
- duration of wakefulness ([1]; effect only for the first two hours): increased
- latency time to onset of the first episode of PS [1]: increased latency time
- paradoxical sleep (PS) [1]: long-lasting reduction

SMILES: O=C(NCC1(CC2CC2)CCC(S(=O)(=O)CC2CC2)CC1)c1ccc(Cl)cc1Cl (centres unmarked) [Merck 1, 2,4-dichloro-N-(4-cyclopropylmethane-sulfonyl-1-cyclopropylmethylcyclohexylmethyl)benzamide]
- REM latency (rats; 3 mg/kg p.o.): significant increase
- decrease in REM sleep (mean±SEM) (rats; 3 mg/kg p.o., significant): 54±7%
- decrease in the number of entries into REM (rats; 3 mg/kg p.o., significant): 45±9%
- decrease in the number of entries into SWS (rats; 3 mg/kg p.o., significant): 26±8%
- increase in time spent in WAKE (rats; 3 mg/kg p.o., trend, p=0.06): 93±43%
